Laboratory results taken from patent publication US9163060B2, “Tubulin inhibitors” (R&D BIOPHARMACEUTICALS GMBH, priority 2009, dated 2015).

What follows are compounds tested on HT-29 (assay: fluorometric resazurin-based anti-proliferative assay, HT-29). Conditions: Homo sapiens, HT-29 cancer cell line.
Method: Determination of the IC-50 Concentration Against Various Cancer Cell Lines
The anti-proliferative activity of some representative example compounds of the present invention was determined in-vitro using a fluorometric resazurin-based assay. Cancer cell proliferation and viability was quantified upon reduction of non-fluorescent resazurin into the fluorescent dye resorufin by metabolically active cells as described in Strotmann, U. J., et al., The dehydrogenase assay with resazurin: Practical performance as a monitoring system and pH-dependent toxicity of phenolic compounds. Ecotox. Environ. Safety 25, 79-89, (1993).
In the case of `CCCN(C(=O)C(NC(=O)C1CCCCN1C)[C@@H](C)CC)[C@H](C[C@@H](OC(C)=O)c1nc(C(=O)N[C@@H](Cc2ccccc2)C(=O)O)cs1)C(C)C` (stereo partly drawn), the IC50 is reported as 4.5 ± 0.5 nM.
`CCCN(C(=O)C(NC(=O)C1CCCCN1C)[C@@H](C)CC)[C@H](C[C@@H](OC(C)=O)c1nc(C(=O)N[C@@H](Cc2ccccc2)C(=O)NCCO)cs1)C(C)C` (stereo partly drawn) gave an IC50 of 3.9 ± 0.7 nM.
With `CC[C@H](C)C(NC(=O)C1CCCCN1C)C(=O)N(C)[C@H](C[C@@H](OC(C)=O)c1nc(C(=O)N[C@@H](Cc2ccccc2)C(=O)O)cs1)C(C)C` (stereo partly drawn) the IC50 was 3.2 ± 0.4 nM.
Compound `CCCN(C(=O)C(NC(=O)C1CCCCN1C)[C@@H](C)CC)[C@H](C[C@@H](OC(C)=O)c1nc(C(=O)N[C@@H](Cc2ccc(F)cc2)C(=O)O)cs1)C(C)C` (stereo partly drawn) has an IC50 of 1 ± 0.2 nM.
`CCCN(C(=O)C(NC(=O)C1CCCCN1C)[C@@H](C)CC)[C@H](C[C@@H](OCOC)c1nc(C(=O)N[C@@H](Cc2ccccc2)C(=O)O)cs1)C(C)C` (stereo partly drawn) gave an IC50 of 51.1 ± 2.6 nM.
`CCCO[C@H](C[C@H](C(C)C)N(CCC)C(=O)C(NC(=O)C1CCCCN1C)[C@@H](C)CC)c1nc(C(=O)N[C@@H](Cc2ccc(O)cc2)C(=O)O)cs1` (stereo partly drawn) showed an IC50 of 3.1 ± 0.6 nM.
